Test results taken from US20250027956A1, “Improved Gamma-Secretase Inhibitor Screening Assays” (VIB VZW, priority 2021, published 2025).

Experiments:
lysosomal exocytosis = settings: cited from earlier work
WT MEFs [1] = assay: Immunoblot of APP-CTFs in drug-treated WT MEFs; assay type: cell-based, mouse; settings: 1 μM for 1-4 days, vs DMSO
Protocol: (§1) Cells were treated with the following drugs, usually for 4 days, unless otherwise stated: DAPT (2634/10, Tocris) 1 μM final; Inhibitor X (565771-250 μg, Calbiochem/Merck) 1 μM final; β-Secretase Inhibitor IV (565788, Calbiochem/Merck) 2 μM final, (2-Hydroxypropyl)-γ-cyclodextrin (H125-5G-I, Sigma Aldrich) 1 mM final; Adam 10 inhibitor G1254023X (SML0789, Sigma Aldrich) 3 μM final. For OSW-1 (30310-1, Sanbio/Cayman Chemical), cells were treated overnight with 10 nM. Diluent treatment alone (in most cases DMSO, water for the cyclodextrin) was used as vehicle control.
Whole cell extracts were prepared starting from lysed cultured cells (80% confluency). Protein concentration was determined using the Bio-Rad DC protein assay (Bio-Rad). These extracts were run on 4-12% Bis-Tris Bolt or NuPAGE precast gels in MES/MOPS running buffer (Invitrogen), followed by transfer on nitrocellulose membranes (Life Technologies). Of note, for APP-CTFs characterization, samples were run on 16% tricine gels (Life Technologies) in the appropriate running buffer (LC1675, Life Technologies). Membranes were blocked with 5% non-fat milk (1 h, RT), incubated with primary antibodies (overnight, 4° C.), rinsed and incubated with HRP-conjugated secondary antibodies (1 h, RT). […]

WT MEFs [2] = assay: Lysosomal Ca2+ content, Fura-2AM loaded cells challenged with GPN, WT cells; assay type: cell-based, mouse; settings: normalized to DMSO
Protocol: as §1
Cytosolic response: Ca2+ responses were measured as previously described in Coen et al 2012. Briefly, cells (0.005 to 0.01×106) were seeded two to three days prior to the experiment on glass coverslips (631-0153, VWR). On the day of recording, cells were rinsed three times in Ringer solution (155 mM NaCl, 5 mM KCl, 2 mM MgCl2, 2 mM CaCl2, 10 mM Glucose, 10 mM HEPES, 2 mM NaH2PO4·2H20; pH 7.3), and loaded 1 μM Fura2-AM (F1221, ThermoFisher Scientific) for 30 min (RT). Cells were rinsed three times and left to equilibrate for at least 15-20 min (RT). All acquisitions were carried out in Ringer Ca2+ free solution (same as above, albeit the 2 mM CaCl2 were replaced by 2 mM EGTA). During experiments, cells were challenged with different drugs, such as Thapsigargin (T7459, ThermoFisher Scientific, 1 μM final), GPN (ab145914, abcam, 100 μM final for MEFs, 500 μM for neurons), MLSA1 (Cat. No. 4746, Tocris, 20 μM final) or lonomycin (10634, Sigma Aldrich, 1 μM final). Images were acquired every 5 sec for 8-10 min, using an Olympus IX81 using an UAPO/340 40× oil objective (1.35 NA), operated by CellR Software (Olympus). Recordings were done using 340 and 380 nm excitation, and 530 nm emission filters. Image processing was performed using Image J Software (Schindelin et al 2012; Schneider et al 2012). Briefly, cells were segmented manually and fluorescence intensities were measured over time. Fura-2 signals were corrected to obtain ΔF/F0 (F0 being the initial signal recorded). For each cell, the area under the curve, corresponding to the aforementioned stimulation, was measured using GraphPad Prism.

APPKO cells = assay: Lysosomal Ca2+ content, Fura-2AM loaded cells challenged with GPN, APPKO cells; assay type: cell-based, mouse; settings: 1 μM, 4 days, normalized to DMSO
Excerpt: Diluent treatment alone (in most cases DMSO, water for the cyclodextrin) was used as vehicle control.
Briefly, the web-based CRISPR design tool was used to select the sequence to be targeted in mouse PSEN1 and PSEN2 (i.e. 5′-[…]-3′ and 5′-[…]-3′, respectively). Oligo pairs encoding guide sequences (obtained from Integrated DNA Technologies, IDT) were annealed and ligated into the pX330 plasmid (Addgene) according to the Zhang's laboratory protocol (https://www.addgene.org/crispr/zhang/). MEF cells were then transfected with the pX330-PSEN1 and PX330-PSEN2, using Fugene HD (Promega), in accordance with the manufacturer protocol. Selection of PSENdKO clones was achieved through serial dilution and confirmed by WB analysis. Further depletion of APP in different PSENdKO clones was achieved through electroporation of RNP complexes. […]
Cells were rinsed three times and left to equilibrate for at least 15-20 min (RT). […] Briefly, cells were segmented manually and fluorescence intensities were measured over time. Fura-2 signals were corrected to obtain ΔF/F0 (F0 being the initial signal recorded). For each cell, the area under the curve, corresponding to the aforementioned stimulation, was measured using GraphPad Prism.

WT MEFs [3] = assay: Confocal immunofluorescence (compartment size, Mander's colocalization, filipin) in WT MEFs; assay type: cell-based, mouse
Protocol: as §1
Immunofluorescence: Cells were fixed (4% paraformaldehyde (PFA)/4% sucrose in PBS free of Ca2+ and Mg2+ (PBS−/−) 20 min, RT), permeabilized (0.1% triton X-100 in PBS−/−; 10 min, RT), and blocked (2% BSA, 2% FBS, 1% gelatin, and depending of the experiment 2% of goat or donkey serum (Bioké or Sigma), 1 h RT). Primary antibodies diluted in the same blocking buffer were incubated overnight at 4° C. Following PBS washing steps, (goat- or donkey-) secondary antibodies conjugated with Alexa fluor dyes (Alexa 488, 568, or 647, all ThermoFisher Scientific) diluted in the blocking buffer were incubated for 1 h, RT. Coverslips were then mounted with Mowiol (Sigma). When cholesterol labelling was performed, fixed cells were treated with 200 μg·ml−1 filipin (F4767, Sigma) for 2 h at RT, prior to permeabilization.
Acquisition: Z stack images (spacing 2 μm), or a median plan were acquired on a Nikon 1AR connected to an inverse Nikon Ti-2000 equipped with an oil-immersion plan APO 60× objective lenses with 1.40 NA. Data were collected using Nikon Imaging Software.
Image analysis: All image analysis was done using Image J software (Schindelin et al 2012; Schneider et al 2012). To measure the area of the organelle of interest (early endosomes-EEA1; lysosomes-Lamp1; retromer-VPS35 . . . ), segmentation was realized using automatic thresholding. The following masks were used: Mean (EEA1), Ostu (Lamp1), Intermodes (VPS35). Overlap of signal of interests were quantified with Manders colocalisation index (Plugin Jacob, (Bolte and Cordelieres 2006)). When indicated, co-localization data was normalized to the reference group for multiple comparisons.

| SMILES | lysosomal exocytosis and cholesterol accumulation (lysosomal exocytosis) | APP-CTFs level (immunoblot) (WT MEFs [1]) | lysosomal Ca2+ content (WT MEFs [2]; 1 μM for 1-4 days, 100 μM GPN) | lysosomal Ca2+ content (WT MEFs [2]; WT cells, 1 μM, 4 days) | Lysosomal Ca2+ content (GPN-elicited Ca2+ response) (APPKO cells) | early endosomes (EEA1) size (WT MEFs [3]; 1 μM for 1-4 days) | APP-CTF accumulation in LAMP1-positive LE/Lys (Mander's colocalization APP-Lamp1) (WT MEFs [3]; 1 μM for 1-4 days, vs DMSO) | cholesterol accumulation in LE/Lys (Filipin-Lamp1 colocalization) (WT MEFs [3]; 1 μM for 1-4 days, vs DMSO) | colocalization of VPS35 and EEA1 with Lamp1 (WT MEFs [3]; 1 μM for 1-4 days, from day 3 onward) | VPS35-positive organelles (size) (WT MEFs [3]; 1 μM, following 3 days of treatment) |
| --- | --- | --- | --- | --- | --- | --- | --- | --- | --- | --- |
| O=c1c(-c2ccc(O)cc2)coc2cc(O)cc(O)c12 [Genistein] | increase lysosomal exocytosis with a decrease in cholesterol accumulation |  |  |  |  |  |  |  |  |  |
| C[C@H](NC(=O)Cc1cc(F)cc(F)c1)C(=O)N[C@H](C(=O)OC(C)(C)C)c1ccccc1 [DAPT] |  | rapidly accumulated APP-CTFs | significantly reduced lysosomal Ca2+ content | reduced | did not affect the GPN-elicited Ca2+ response | significantly enlarged only after 4 days of treatment | increasing APP-CTF accumulation | only significantly from day 2 | increased colocalization of VPS35 and EEA1 with Lamp1 | found to be increased |
